We go through 11 sequences from US5985541A, “Peptide capable of being recognized by antibodies recognizing the C33 antigen of hepatitis C virus” (Bio Merieux, priority 1995, dated 1999).

Where no end group is shown, it is not given here.

One test concerns anti-C33 70-13 or 12A1H2 monoclonal antibodies. Briefly: Spotscan immunoreactivity of overlapping octapeptides with anti-C33 monoclonal antibodies. Format: binding. The note with it: monoclonal antibodies 100 nM; β-galactosidase anti-mouse conjugate 1/200; estimated qualitatively. The method, then: The synthesis was conducted on an activated cellulose membrane according to the technique developed by Berg et al. (1989, J. Ann. Chem. Soc., 111, 8024-8026) and available from Cambridge Research Biochemicals (trade name Spotscan). This technique allows simultaneous synthesis of a large number of peptides. The escerified amino acids used in the synthesis have an α-amino group protected by an FMOC group (Nova Biochem) and side groups protected by protective groups such as, for example, trityl, t-butyl ester, or t-butyl ether. The esterified amino acids are dissolved in N-methylpyrrolidone (NMP) at the concentration of […] and 0.9 μl are deposited at the attachment sites of bromphenol blue. After 15 minutes incubation, amino acids are deposited once again, followed by a further incubation of 15 minutes. If the coupling between the two amino acids is done correctly, a color change is observed (transition from blue to yellow-green). After three washings in DMF, an acetylation step is performed by acetic anhydride. Then the terminal amino groups of the peptides undergoing synthesis are deprotected by piperidine in a 20% solution in DMF. The deposition sites are re-stained by a 1% bromophenol blue solution in DMF, washed three times with methanol, and dried. This sequence of operations constitutes one amino acid addition cycle, and this cycle is repeated until synthesis is complete. When all the amino acids have been added, the NH2 terminal group of the last amino acid is deprotected by piperidine in a 20% solution in DMF and acetylated with acetic anhydride. The protective groups of the side chain are removed by a mixture of dichloromethane/trifluoroacetic acid/triisobutylsilane (5 ml/5 ml/250 μl). The immunoreactivity of the peptides thus synthesized can then be tested, for example, by ELISA.
After synthesis of the various octapeptides, the cellulose membrane is rinsed with methanol, washed in TBS (0.1 M Tris, pH 7.2) then incubated overnight at room temperature in saturation buffer (available from Cambridge Research Biochemicals). After several washings with TBS-T (0.1 M Tris, pH 7.2-0.05% Tween 20), the membrane is placed in contact with a solution of anti-C33 70-13 or 12A1H2 monoclonal antibodies (100 nM), and incubated for four hours at room temperature. After three washings with TBS-T, the anti-mouse-immunoglobulin conjugate labeled with β-galactosidase (available from Cambridge Research Biochemicals) is added to a 1/200 dilution and these materials are incubated for two hours at room temperature. After several washings of the membrane with 0.05% TBS-Tween and PBS, the immunoreactivity at the various spots is developed by adding a solution of substrate (5-bromo-4-chloro-3-indoyl-β-D-galactopyranoside in PBS containing magnesium chloride and potassium ferricyanide) and incubating for ten to forty minutes. The color of the spots is estimated qualitatively on a numerical scale from 0 to 5.
Turning to DGAKFSSR, the “color of the spots (immunoreactivity)” value is “first color”.

As to SRLGAAGA, the “color of the spots (immunoreactivity)” value is “very slight coloration”.

RLGAAGAE: the “color of the spots (immunoreactivity)” value is given as “disappears completely”.

For KFSSRLGA, the “color of the spots (immunoreactivity)” value was “maximum”.

Take FSSRLGAA: the “color of the spots (immunoreactivity)” value is listed as “maximum”.

A further test concerns mixture of human sera from patients infected by HCV (anti-C33 antibodies). Briefly: Spotscan immunoreactivity of overlapping octapeptides with mixture of human sera. The note with it: 1/50 dilution of human sera mixture; anti-human-immunoglobulin conjugate 1/200. Format: binding.
Regarding FSSRLGAA, the “color of the spots (immunoreactivity)” value is “maximum color”.

The next test deals with anti-C33 antibodies. The test is described as follows: Spotscan point substitution tests on the Lys-Phe-Ser-Ser-Arg-Leu-Gly-Ala peptide. The format is binding. The note with it: point or double substitution of amino acids. The method, then:
In order to determine the degree to which the nature of the various amino acids constituting the Lys-Phe-Ser-Ser-Arg-Leu-Gly-Ala peptide can vary without reducing the antigenic properties of said peptide with respect to anti-C33 antibodies, point substitution tests were performed.
The peptides were synthesized by the method described in the previous example, known as "Spotscan", substituting each amino acid on the peptide at a given position by the other nineteen. These peptides were then tested as described above. The size of each residue can thus be examined and the peptide grouping the best amino acids in each position can then be synthesized.
For the sequence KFSSPLGA [SEQ ID NO: 33], the “response compared with the Lys-Phe-Ser-Ser-Arg-Leu-Gly-Ala peptide” value is on record as “better response”.

Consider KASSYLGA [SEQ ID NO: 36], for which the “response compared with the Lys-Phe-Ser-Ser-Arg-Leu-Gly-Ala peptide” value is on record as “advantageously”.

As for KFSSGLGA [SEQ ID NO: 32], the “response compared with the Lys-Phe-Ser-Ser-Arg-Leu-Gly-Ala peptide” value is recorded as “better response”.

For the sequence KFSSYLGA [SEQ ID NO: 34], the “response compared with the Lys-Phe-Ser-Ser-Arg-Leu-Gly-Ala peptide” value is “better response”.

With KYSSRLGA [SEQ ID NO: 35], the “response compared with the Lys-Phe-Ser-Ser-Arg-Leu-Gly-Ala peptide” value is recorded as “equivalent response”.

For KHSSYLGA [SEQ ID NO: 37], the “response compared with the Lys-Phe-Ser-Ser-Arg-Leu-Gly-Ala peptide” value was “advantageously”.
